Laboratory results reported in article PMC7914897, “Cytotoxic Potential of a-Azepano- and 3-Amino-3,4-SeCo-Triterpenoids” (International Journal of Molecular Sciences, 2021).
Read-outs that look alike come from different tables or passages of the source.

Tests used:
[1] = test system: panel of approximately 60 cancer cell lines; test: NCI-60 screen (SRB, 48 h), full panel; settings: for Positive Cytostatic Effect (cell lines with percent growth 0 to 50 / total) / Positive Cytotoxic Effect (cell lines with percent growth < 0 / total) / number of cancer cell lines the compound was active against: 1 dose 10 µM; for activity at 10 µM: Homo sapiens, 48 h
SR (Leukemia) = test: NCI-60 screen (SRB, 48 h); format: cell-based; settings: 1 dose 10 µM
[2] = test system: NIH 3T3 (non-malignant mouse fibroblasts); test: SRB cytotoxicity assay, 72 h; format: cell-based; settings: Mus musculus, NIH3T3; NIH 3T3, 72 h, cut-off 30 µM; read-out: EC50
Procedure: (§1) The cytotoxicity of compounds 1–20 was evaluated by means of a colorimetric sulforhodamine B (SRB) assay. For all compounds, the EC50 values were determined for the human tumor cell lines A375 (malignant melanoma), HT29 (colorectal carcinoma), MCF-7 (breast carcinoma), A2780 (ovarian carcinoma), FaDu (hypopharyngeal carcinoma), and NIH 3T3 (non-malignant mouse fibroblasts).
(§2) In short, exponentially growing cells were seeded into 96-well plates on day 0 at the appropriate cell densities to prevent confluence of the cells during the period of experiment. After 24 h, the cells were treated with serial dilutions of the compounds (0–30 µM) for 72 h. The final concentration of DMSO never exceeded 0.5%, which was non-toxic to the cells. After a 72 h treatment, the supernatant medium from the 96-well plates was discarded, and the cells were fixed with 10% TCA. For a thorough fixation, the plates were allowed to rest at 4 °C. After fixation, the cells were washed in a strip washer. The washing was done four times with water using alternate dispensing and aspiration procedures. The plates were then dyed with 100 µL of 0.4% SRB for about 20 min. After dying, the plates were washed with 1% acetic acid to remove the excess of the dye and allowed to air-dry overnight. Tris base solution (200 µL, 10 mM) was added to each well and absorbance was measured at λ = 570 nm (using a 96 well plate reader, Tecan Spectra, Crailsheim, Germany). The percentages of surviving cells relative to untreated controls were determined.

[3] = test system: FaDu (hypopharyngeal carcinoma); test: SRB cytotoxicity assay, 72 h; format: cell-based, human; settings: Homo sapiens, cut-off 30 µM, read-out: EC50
Procedure: as §1, §2

[4] = test system: HT29 (colorectal carcinoma); test: SRB cytotoxicity assay, 72 h; format: cell-based, human; settings: Homo sapiens, HT-29; HT29, 72 h, cut-off 30 µM; read-out: EC50
Procedure: as §1, §2

MCF-7 (breast carcinoma) = test: SRB cytotoxicity assay, 72 h; format: cell-based, human; settings: Homo sapiens, MCF7; MCF-7, 72 h, cut-off 30 µM; read-out: EC50
Procedure: as §1, §2

[5] = test system: A2780 (ovarian carcinoma); test: SRB cytotoxicity assay, 72 h; format: cell-based, human; settings: Homo sapiens; A2780, 72 h, cut-off 30 µM; read-out: EC50
Procedure: as §1, §2

[6] = test system: A375 (malignant melanoma); test: SRB cytotoxicity assay, 72 h; format: cell-based, human; settings: A375, 72 h, cut-off 30 µM, read-out: EC50
Procedure: as §1, §2

COLO 205 (Colon cancer) = test: NCI-60 screen (SRB, 48 h); settings: COLO 205, 1 dose 10 µM
HT29 (Colon cancer) = test: NCI-60 screen (SRB, 48 h); settings: HT29, 1 dose 10 µM

| Compound | Positive Cytostatic Effect (cell lines with percent growth 0 to 50 / total) [1] | Positive Cytotoxic Effect (cell lines with percent growth < 0 / total) [1] | number of cancer cell lines the compound was active against [1] | activity at 10 µM ([1]; read-out: Mean Growth, %) [%] | activity at 10 µM ([1]; read-out: Range of Growth, %) [%] | Growth % of the Most Sensitive Cell Lines (SR (Leukemia)) [%] | EC50 [2] [µM] | EC50 [3] [µM] | EC50 [4] [µM] | EC50 (MCF-7 (breast carcinoma)) [µM] | EC50 [5] [µM] | EC50 ([6]; Homo sapiens, A-375, 72 h) [µM] | Growth % of the Most Sensitive Cell Lines (COLO 205 (Colon cancer)) [%] | Growth % of the Most Sensitive Cell Lines (HT29 (Colon cancer)) [%] | EC50 [6] [µM] |
| --- | --- | --- | --- | --- | --- | --- | --- | --- | --- | --- | --- | --- | --- | --- | --- |
| CC1(C)CC[C@]2(C(=O)NC(CO)Cc3ccccc3)CC[C@]3(C)C(=CC[C@@H]4[C@@]5(C)CCCNC(C)(C)[C@@H]5CC[C@]43C)[C@@H]2C1 (stereo partly shown) [Compound 13] | 10/60 | 1/60 | 6 cell lines | 74.9 | -5.95 to 107 | −5.95 | 3.08 ± 0.3 | 3.79 ± 0.3 | 2.07 ± 0.1 | 2.82 ± 0.3 | 4.15 ± 0.2 | 3.08 ± 0.1 |  |  |  |
| CC1(C)NCCC[C@]2(C)[C@H]3CC=C4[C@@H]5C[C@@](C)(CO)CC[C@]5(C)CC[C@@]4(C)[C@]3(C)CC[C@@H]12 [Compound 5, azepano-glycyrretol] | 13/58 | 2/58 | 8 cell lines | 56.2 | -4.98 to 98.9 | −1.30 | 7.43 ± 1.2 | 4.81 ± 0.9 | 3.97 ± 0.4 | 5.68 ± 0.5 | 6.36 ± 0.6 | 5.69 ± 0.4 | −4.98 |  |  |
| C=C(C)[C@@H]1CC[C@]2(C(=O)NC3CCCCC3)CC[C@]3(C)[C@H](CC[C@@H]4[C@@]5(C)CCCNC(C)(C)[C@@H]5CC[C@]43C)[C@@H]12 [Compound 10] |  |  |  |  |  |  | 1.5 ± 0.2 | 2.04 ± 0.1 | 0.98 ± 0.1 | 1.9 ± 0.1 | 2.27 ± 0.4 | 2.18 ± 0.2 |  |  |  |
| CC(=O)[C@@H]1CC[C@]2(CO)CC[C@]3(C)[C@H](CC[C@@H]4[C@@]5(C)CCCNC(C)(C)[C@@H]5CC[C@]43C)[C@@H]12 [Compound 2, azepanomessagenin] | 0/59 |  | did not show antiproliferative activity | 99.2 | 68.1 to 136 |  | 8.03 ± 1.4 | 6.21 ± 1.2 | 6.32 ± 0.4 | 5.78 ± 0.7 | 7.71 ± 0.4 | 7.92 |  | 68.07 | 7.82 ± 0.3 |
